Read-outs that look alike come from different tables or passages of the source.
Tests used:
Puccinia triticina = assay: Fungicidal activity: wheat brown rust (PUCCRT), disease control on wheat seedlings; format: in vivo, Puccinia triticina on wheat plants (variety Yuma); conditions: for pest or weed control at 100 ppm: high volume application; for pest or weed control at 121.5 g/ha: low volume application, 121.5 g/H
Procedure: Technical grades of materials were dissolved in acetone, which were then mixed with nine volumes of water (H2O) containing 110 ppm Triton X-100. The fungicide solutions were applied onto wheat seedlings using an automated booth sprayer to run-off. All sprayed plants were allowed to air dry prior to further handling. All fungicides were evaluated using the aforementioned method for their activity vs. all target diseases, unless stated otherwise. Wheat leaf blotch and brown rust activity were also evaluated using track spray applications, in which case the fungicides were formulated as EC formulations, containing 0.1% Trycol 5941 in the spray solutions. Evaluation of Fungicidal Activity: Wheat Brown Rust (Puccinia triticina; Synonym: Puccinia recondita f. Sp. Tritici; Bayer Code PUCCRT) Wheat plants (variety Yuma) were grown from seed in a greenhouse in 50% mineral soil/50% soil-less Metro mix until the first leaf was fully emerged, with 7-10 seedlings per pot. These plants were inoculated with an aqueous spore suspension of Puccinia triticina either prior to or after fungicide treatments. After inoculation the plants were kept in a dark dew room at 22° C. with 100% relative humidity overnight to permit spores to germinate and infect the leaf. The plants were then transferred to a greenhouse set at 24° C. for disease to develop. Fungicide formulation, application and disease assessment followed the procedures as described in the Example A. The results of the evalution are shown below in Table 4.

Zymoseptoria tritici = assay: Fungicidal activity: leaf blotch of wheat (SEPTTR), disease control on wheat seedlings; format: in vivo, Zymoseptoria tritici on wheat plants (variety Yuma); conditions: for pest or weed control at 100 ppm: high volume application; for pest or weed control at 121.5 g/ha: low volume application, 121.5 g/H
Procedure: Evaluation of Fungicidal Activity: Leaf Blotch of Wheat (Zymoseptoria Tritici; Bayer Code […]) Technical grades of materials were dissolved in acetone, which were then mixed with nine volumes of water (H2O) containing 110 ppm Triton X-100. The fungicide solutions were applied onto wheat seedlings using an automated booth sprayer to run-off. All sprayed plants were allowed to air dry prior to further handling. All fungicides were evaluated using the aforementioned method for their activity vs. all target diseases, unless stated otherwise. Wheat leaf blotch and brown rust activity were also evaluated using track spray applications, in which case the fungicides were formulated as EC formulations, containing 0.1% Trycol 5941 in the spray solutions. Wheat plants (variety Yuma) were grown from seed in a greenhouse in 50% mineral soil/50% soil-less Metro mix until the first leaf was fully emerged, with 7-10 seedlings per pot. These plants were inoculated with an aqueous spore suspension of Zymoseptoria tritici either prior to or after fungicide treatments. After inoculation the plants were kept in 100% relative humidity (one day in a dark dew chamber followed by two to three days in a lighted dew chamber at 20° C.) to permit spores to germinate and infect the leaf. The plants were then transferred to a greenhouse set at 20° C. for disease to develop. When disease symptoms were fully expressed on the 1st leaves of untreated plants, infection levels were assessed on a scale of 0 to 100 percent disease severity. Percent disease control was calculated using the ratio of disease severity on treated plants relative to untreated plants.

Phakopsora pachyrhizi = assay: Fungicidal activity: Asian soybean rust (PHAKPA), disease control on soybean seedlings; format: in vivo
Procedure: Evaluation of Fungicidal Activity: Asian Soybean Rust (Phakopsora Pachyrhizi; Bayer Code PHAKPA)
Technical grades of materials were dissolved in acetone, which were then mixed with nine volumes of H2O containing 0.011% Tween 20. The fungicide solutions were applied onto soybean seedlings using an automated booth sprayer to run-off. All sprayed plants were allowed to air dry prior to further handling.
Soybean plants (variety Williams 82) were grown in soil-less Metro mix, with one plant per pot. Two weeks old seedlings were used for testing. Plants were inoculated either 3 days prior to or 1 day after fungicide treatments. Plants were incubated for 24 h in a dark dew room at 22° C. and 100% relative humidity then transferred to a growth room at 23° C. for disease to develop. Disease severity was assessed on the sprayed leaves.

[1] = 24 h, 1 day protectant, read-out: PUCCRT 1DP disease control, HV activity at 100 ppm
[2] = 72 h, 3 day curative, read-out: PUCCRT 3DC disease control, HV activity at 100 ppm
[3] = 24 h, 1 day protectant, read-out: SEPTTR 1DP disease control, HV activity at 100 ppm
[4] = 72 h, 3 day curative, read-out: SEPTTR 3DC disease control, HV activity at 100 ppm
[5] = 24 h, 1 day protectant, read-out: PUCCRT 1DP disease control, LV activity at 121.5 g/H
[6] = 72 h, 3 day curative, read-out: PUCCRT 3DC disease control, LV activity at 121.5 g/H
[7] = 24 h, 1 day protectant, read-out: SEPTTR 1DP disease control, LV activity at 121.5 g/H
[8] = 72 h, 3 day curative, read-out: SEPTTR 3DC disease control, LV activity at 121.5 g/H
[9] = 24 h, 1 day protectant, read-out: PHAKPA 1DP disease control at 25 ppm
[10] = 72 h, 3 day curative, read-out: PHAKPA 3DC disease control at 25 ppm

Row | melting point [°C] | SMILES | pest or weed control at 100 ppm (Puccinia triticina; [1]) [%] | pest or weed control at 100 ppm (Puccinia triticina; [2]) [%] | pest or weed control at 100 ppm (Zymoseptoria tritici; [3]) [%] | pest or weed control at 100 ppm (Zymoseptoria tritici; [4]) [%] | pest or weed control at 121.5 g/ha (Puccinia triticina; [5]) [%] | pest or weed control at 121.5 g/ha (Puccinia triticina; [6]) [%] | pest or weed control at 121.5 g/ha (Zymoseptoria tritici; [7]) [%] | pest or weed control at 121.5 g/ha (Zymoseptoria tritici; [8]) [%] | pest or weed control at 25 ppm (Phakopsora pachyrhizi; [9]) [%] | pest or weed control at 25 ppm (Phakopsora pachyrhizi; [10]) [%]
1 | 59 to 75 | COc1cc(F)ccc1C(c1ccc(F)cc1OC)[C@H](C)OC(=O)[C@H](C)NC(=S)c1nccc(OC)c1O [Compound 23] | > 80 | ≤ 80 | > 80 | > 80 |  |  |  |  |  | 
2 | 54 to 70 | COc1cc(F)ccc1[C@@H](c1ccc(F)cc1)[C@H](C)OC(=O)[C@H](C)NC(=S)c1nccc(OC)c1O [Compound 24] | > 80 | ≤ 80 | > 80 | > 80 |  |  |  |  |  | 
3 | 80 to 86 | CC[C@H](OC(=O)[C@H](C)NC(=S)c1nccc(OC)c1O)[C@@H](C)Oc1ccccc1 [Compound 25] | ≤ 80 |  |  |  |  |  |  |  |  | 
4 | 152 to 159 | COc1ccnc(C(=S)N[C@@H](C)C(=O)O[C@@H](C)[C@@H](c2ccccc2)c2ccc(F)cc2C)c1O [Compound 26] | > 80 | ≤ 80 | > 80 | > 80 |  |  |  |  |  | 
5 | 46 to 63 | COc1ccnc(C(=S)N[C@@H](C)C(=O)O[C@@H](C(C)C)[C@@H](C)Oc2ccccc2)c1O [Compound 27] | ≤ 80 |  |  | ≤ 80 |  |  |  |  |  | 
6 | 53 to 64 | COc1ccnc(C(=S)N[C@H](C)C(=O)O[C@H](C)C(c2ccc(F)cc2)c2ccc(F)cc2)c1O [Compound 28] |  |  |  |  |  |  |  |  |  | 
7 | 60 to 72 | COc1cc(C)ccc1C(c1ccc(C)cc1OC)[C@H](C)OC(=O)[C@H](C)NC(=S)c1nccc(OC)c1O [Compound 29] | > 80 | > 80 | > 80 | > 80 |  |  |  |  |  | 
8 | 50 to 60 | COc1ccnc(C(=S)N[C@@H](C)C(=O)O[C@@H](C)[C@H](Oc2ccccc2)c2ccc(F)cc2Cl)c1O [Compound 30] | > 80 | ≤ 80 | > 80 | > 80 |  |  |  |  |  | 
9 | 57 to 68 | COc1ccnc(C(=S)N[C@@H](C)C(=O)O[C@@H](C)[C@@H](c2ccc(F)cc2)c2ccc(F)cc2C)c1O [Compound 31] | > 80 | ≤ 80 | > 80 | > 80 |  |  |  |  |  | 
10 | 50 to 61 | COc1ccnc(C(=S)N[C@@H](C)C(=O)O[C@@H](C)C(c2ccc(F)cc2F)c2ccc(F)cc2F)c1O [Compound 32] | ≤ 80 | ≤ 80 | ≤ 80 | > 80 |  |  |  |  |  | 
11 | 132 to 141 | COc1ccnc(C(=S)N[C@@H](C)C(=O)O[C@@H](C)[C@H](Oc2cccc(F)c2)C(C)C)c1O [Compound 33] | > 80 | > 80 | > 80 | ≤ 80 |  |  |  |  |  | 
12 | 45 to 57 | COc1ccnc(C(=S)N[C@@H](C)C(=O)O[C@@H](C)[C@H](Oc2ccccc2)c2ccc(F)cc2C)c1O [Compound 35] | > 80 | ≤ 80 | > 80 | > 80 |  |  |  |  |  | 
13 | 141 to 148 | COc1ccnc(C(=S)N[C@@H](C)C(=O)O[C@H](C(C)C)[C@H](C)Oc2ccc(F)cc2)c1O [Compound 36] | > 80 | > 80 | > 80 | ≤ 80 |  |  |  |  |  | 
14 | 125 to 133 | CCC[C@@H](Oc1ccc(C)cc1)[C@H](C)OC(=O)[C@H](C)NC(=S)c1nccc(OC)c1O [Compound 37] | > 80 | > 80 | ≤ 80 |  |  |  |  |  |  | 
15 | 49 to 57 | COc1ccnc(C(=S)N[C@@H](C)C(=O)O[C@@H](C)[C@H](Oc2ccc(Cl)cc2)C2CCCC2)c1O [Compound 38] | > 80 | > 80 | > 80 | ≤ 80 |  |  |  |  |  | 
16 |  | COc1ccnc(C(=S)N[C@@H](C)C(=O)O[C@@H](C)[C@H](Oc2ccc(Cl)cc2)C2CCCC2)c1OC(C)=O [Compound 71] |  |  |  |  | > 80 | > 80 | > 80 | ≤ 80 | ≤ 80 | 
17 |  | COc1ccnc(C(=S)N[C@@H](C)C(=O)O[C@@H](C)[C@@H](c2ccccc2)c2ccc(F)cc2C)c1OC(C)=O [Compound 72] |  |  |  |  | > 80 | > 80 | > 80 | > 80 | > 80 | > 80
18 |  | COc1ccnc(C(=S)N[C@@H](C)C(=O)O[C@H](C(C)C)[C@H](C)Oc2ccc(F)cc2)c1OC(C)=O [Compound 73] |  |  |  |  | > 80 | > 80 | > 80 | > 80 | > 80 | > 80
19 |  | COc1ccnc(C(=S)N[C@@H](C)C(=O)O[C@@H](C)[C@H](Oc2ccccc2)c2ccc(F)cc2C)c1OC(C)=O [Compound 74] |  |  |  |  | > 80 | ≤ 80 | > 80 | > 80 | ≤ 80 | ≤ 80
20 |  | COc1ccnc(C(=S)N[C@@H](C)C(=O)O[C@@H](C)[C@H](Oc2ccccc2)c2ccc(F)cc2Cl)c1OC(C)=O [Compound 75] |  |  |  |  | > 80 | ≤ 80 | > 80 | > 80 | ≤ 80 | ≤ 80
21 |  | COc1ccnc(C(=S)N[C@@H](C)C(=O)O[C@@H](C)[C@H](Oc2cccc(F)c2)C(C)C)c1OC(C)=O [Compound 77] |  |  |  |  | > 80 | > 80 | ≤ 80 | > 80 | > 80 | ≤ 80
22 |  | COc1ccnc(C(=S)N[C@@H](C)C(=O)O[C@@H](C)C(c2ccc(F)cc2)c2ccc(F)cc2)c1OC(C)=O [Compound 78] |  |  |  |  | > 80 | ≤ 80 | > 80 | > 80 | ≤ 80 | 
